# Data reported in PMC10820528, “New Rare Triterpene Glycosides from Pacific Sun Star, Solaster pacificus, and Their Anticancer Activity” (Marine Drugs, 2023).
# Experiments:
# [1] = test system: breast cancer MDA-MB-231 cells; experiment: Soft-agar clonogenic assay, MDA-MB-231; assay type: cell-based, human; conditions: 14 days
# Description: (§1) The soft-agar clonogenic assay was applied in order to assess the effect of compound 2 on the colony formation of human colorectal carcinoma HCT 116 and breast cancer MDA-MB-231 cells. As a result, compound 2 at concentrations of 0.6, 1.25, 2.5, and 5 µM decreased the number of colonies of HCT 116 cells by 11, 24, 52, and 97%, respectively (Figure 6a,b) and MDA-MB-231 cells by 20, 39, 61, and 80%, respectively (Figure 6c,d).
# (§2) HCT 116 and MDA-MB-231 cells (2.4 × 10^4/mL) were treated with compound 2 (0.6, 1.25, 2.5, and 5 µM). Then, the cells were placed onto 0.3% BME agar containing 10% FBS, 2 mM L-glutamine, and 25 µg/mL gentamicin. The cultures were maintained at 37 °C in a 5% CO2 incubator for 14 days. The number of colonies was counted under an AE 20 Motic microscope using the ImageJ v. 1.50i software, bundled with 64-bit Java 1.6.0_24 (NIH, Bethesda, MD, USA).
# [2] = test system: human colorectal carcinoma HCT 116 cells; experiment: Soft-agar clonogenic assay, HCT 116; assay type: cell-based; conditions: 14 days
# Description: as §1, §2
# [3] = test system: human embryonic kidney HEK 293 cells; experiment: cells; assay type: cell-based
# Description: (§3) We calculated the inhibiting concentration that cause death of 50% of cells (IC50) and the selectivity index (SI) of the compounds tested (Table 4).
# (§4) The human embryonic kidney HEK 293 cells (ATCC® CRL-1573™), breast cancer MDA-MB-231 cells (ATCC® HTB-26™), and colorectal carcinoma HCT 116 cells (ATCC® CCL-247™) were purchased from the American Type Culture Collection (Manassas, VA, USA). The HEK 293 and MDA-MB-231 cells were cultured in DMEM; the HCT 116 cells were cultured in the McCoy’s 5A medium at 37 °C in a humidified atmosphere containing 5% CO2. The culture media were supplemented with 10% heat-inactivated FBS and a 1% penicillin/streptomycin solution. The number of passages was carefully controlled, and contamination by Mycoplasma was monitored on a regular basis.
# (§5) Compounds 1–3, and 6–8 were dissolved in sterile dimethyl sulfoxide (DMSO), to prepare stock concentrations of 20 mM. Cells were treated with serially diluted 1–3, 6–8 (0.3–100 µM) (with the culture medium used as diluent) (the final concentration of DMSO was less than 0.5%). The vehicle control was the cells treated with an equivalent volume of DMSO (the final concentration was less than 0.5%) for all of the presented experiments.
# (§6) HEK 293 (1.0 × 10^4/200 µL), HCT 116 (1.0 × 10^4/200 µL), and MDA-MB-231 (0.8 × 10^4/200 µL) cells were seeded in a 96-well plate and incubated for 24 h at 37 °C in a CO2 incubator. […] The cells were subsequently incubated with 15 µL of the MTS reagent for 3 h. The absorbance of each well was measured at 490/630 nm on a Power Wave XS microplate reader (BioTek, Winooski, VT, USA).
# (§7) The IC50 concentration was calculated using the AAT-Bioquest® online calculator [24]. The selectivity index (SI) was calculated as described previously, using the following formula: SI = IC50 of the compounds for normal cells (HEK 293) divided by IC50 of the same compounds for the human colorectal adenocarcinoma and breast cancer (HCT 116 and MDA-MB-231) cell lines.
# [4] = test system: breast cancer MDA-MB-231 cells; experiment: cells; assay type: cell-based
# Description: as §3, §4, §5, §6, §7
# [5] = test system: colorectal carcinoma HCT 116 cells; experiment: cells; assay type: cell-based
# Description: We determined the cytotoxicity of compounds 1–3 and 6–8 against human embryonic kidney HEK 293, colorectal carcinoma HCT 116, and breast cancer MDA-MB-231 cells by the MTS assay, after 24 h of treatment with the compounds. We calculated the inhibiting concentration that cause death of 50% of cells (IC50) and the selectivity index (SI) of the compounds tested (Table 4).
# as §4, §5, §6, §7
# [6] = test system: human colorectal carcinoma HCT 116 cells; experiment: Scratch (wound-healing) assay, HCT 116; assay type: cell-based; conditions: for suppression of migration of HCT 116 cells: 48 h, compared to control at 48 h; for reduction of migration of HCT 116 cells: 72 h of treatment, compared to control at 72 h
# From the text: (§8) Metastasis is the leading cause of cancer mortality. The metastatic cascade is a multistep process in which cancer cells are […], from the primary tumor to distant parts and tissues. Migration and plasticity of cancer cells, as well as the environment such as stromal and endothelial cells, are essential in metastasis. In this study, the migration ability (invasive potential) of colorectal carcinoma HCT 116 cells and breast cancer MDA-MB-231 cells and the anti-invasive effect of compound 2 were determined by the “wound-healing”, or scratch, method.
# (§9) HCT 116 and MDA-MB-231 cells (3 × 10^5 cells/mL) were seeded in 6-well plates and grown to 80% confluence for 24 h. After removing the culture medium, the cells’ monolayer was scraped with a 200 µL sterile pipette tip, to create a straight scratch. Then, the cells were treated with compound 2 at concentrations of 0.6, 1.25, 2.5, and 5 µM and incubated for 24, 48, and 72 h. All experiments were set up in triplicate for each group. For image analysis, the cell migration into the wound area was photographed at the stages of 0, 24, 48, and 72 h through a Motic AE 20 microscope and using the ImageJ v. 1.50i software, bundled with 64-bit Java 1.6.0_24 (NIH, Bethesda, MD, USA). The cell migration distance was estimated by measuring the width of the wound, and was expressed as the percentage of each control (0 h) in relation to the mean of the wound-closure area.
# [7] = test system: breast cancer MDA-MB-231 cells; experiment: Scratch (wound-healing) assay, MDA-MB-231; assay type: cell-based; conditions: Homo sapiens, 24 h of treatment, compared to control at 24 h, read-out: inhibition of migration of MDA-MB-231 cells
# From the text: as §8
# as §9, with “1.50i software, bundled with 64-bit Java 1.6.0_24 (NIH, Bethesda, MD, USA).” left out
# [8] = test system: MDA-MB-231 human breast cancer cells; parameters: method as in PMID 21741966; conditions: concentration- and time-dependent; cited from earlier work
# [9] = test system: metastatic breast cancer; parameters: method as in PMID 21761157; conditions: syngeneic murine model of metastatic breast cancer; cited from earlier work
# [10] = test system: AsPC-1 human pancreatic cancer cells; parameters: method as in PMID 18837899; conditions: by induction of apoptosis; cited from earlier work
smiles,measurement,setting,value
"CO[C@@H]1[C@@H](O)[C@H](O[C@@H]2[C@@H](O)[C@H](O[C@H]3[C@H](O)[C@@H](O)[C@H](O[C@H]4[C@H](O[C@H]5CC[C@]6(C)C7=C(CC[C@H]6C5(C)C)[C@]5(C)C[C@H](OC(C)=O)[C@H]([C@@](C)(O)CCC=C(C)C)[C@@]5(CO)CC7)OC[C@@H](O)[C@@H]4O)O[C@@H]3C)O[C@H](CO)[C@H]2O)OC[C@H]1O [Compound 2, (20S)-3β-O-[3-O-methyl-β-D-xylopyranosyl-(1→3)-β-D-glucopyranosyl-(1→4)-β-D-quinovopyranosyl-(1→2)-β-D-xylopyranosyl]-16β-acetoxy,18,20-dihydroxy-5α-lanosta-8(9),24-diene]","decrease of the number of colonies, MDA-MB-231",[1]; 0.6 µM,20%
same,"decrease of the number of colonies, MDA-MB-231",[1]; 1.25 µM,39%
same,"decrease of the number of colonies, MDA-MB-231",[1]; 2.5 µM,61%
same,"decrease of the number of colonies, MDA-MB-231",[1]; 5 µM,80%
same,"decrease of the number of colonies, HCT 116",[2]; 0.6 µM,11%
same,"decrease of the number of colonies, HCT 116",[2]; 1.25 µM,24%
same,"decrease of the number of colonies, HCT 116",[2]; 2.5 µM,52%
same,"decrease of the number of colonies, HCT 116",[2]; 5 µM,97%
same,"cytotoxic activity in words, HEK 293",[3],Moderate
same,IC50,"[3]; Homo sapiens, HEK293, MTS assay, 24 h of cell incubation, mean ± SD, read-out: IC50, HEK 293",18.5 ± 2.5 µM
same,"cytotoxic activity in words, MDA-MB-231",[4],Moderate
same,IC50,"[4]; Homo sapiens, MDA-MB-231, MTS assay, 24 h of cell incubation, mean ± SD, read-out: IC50, MDA-MB-231",15.5 ± 1.6 µM
same,"SI (selectivity index), MDA-MB-231","[4]; mean IC50 against normal cells (HEK 293)/mean IC50 against MDA-MB-231, 24 h",1.2
same,"cytotoxic activity in words, HCT 116",[5],Moderate
same,IC50,"[5]; Homo sapiens, HCT-116, MTS assay, 24 h of cell incubation, mean ± SD, read-out: IC50, HCT 116",18.6 ± 1.4 µM
same,"SI (selectivity index), HCT 116","[5]; mean IC50 against normal cells (HEK 293)/mean IC50 against HCT 116, 24 h",1
same,suppression of migration of HCT 116 cells,[6]; 0.6 µM,8%
same,reduction of migration of HCT 116 cells,[6]; 0.6 µM,3%
same,suppression of migration of HCT 116 cells,[6]; 1.25 µM,18%
same,reduction of migration of HCT 116 cells,[6]; 1.25 µM,3%
same,suppression of migration of HCT 116 cells,[6]; 2.5 µM,42%
same,reduction of migration of HCT 116 cells,[6]; 2.5 µM,23%
same,suppression of migration of HCT 116 cells,[6]; 5 µM,41%
same,reduction of migration of HCT 116 cells,[6]; 5 µM,41%
same,inhibition at 0.6 µM,"[6]; Homo sapiens, HCT-116, 0.6 µM, 24 h of treatment, compared to control 24 h, read-out: inhibition of migration of HCT 116 cells",5%
same,inhibition at 1.25 µM,"[6]; Homo sapiens, HCT-116, 1.25 µM, 24 h of treatment, compared to control 24 h, read-out: inhibition of migration of HCT 116 cells",17%
same,inhibition at 2.5 µM,"[6]; Homo sapiens, HCT-116, 2.5 µM, 24 h of treatment, compared to control 24 h, read-out: inhibition of migration of HCT 116 cells",30%
same,inhibition at 5 µM,"[6]; Homo sapiens, HCT-116, 5 µM, 24 h of treatment, compared to control 24 h, read-out: inhibition of migration of HCT 116 cells",37%
same,inhibition at 5 µM,[7],15%
CO[C@@H]1[C@@H](O)[C@H](O[C@@H]2[C@@H](O)[C@H](O[C@H]3[C@H](O)[C@@H](O[C@@H]4OC[C@@H](O)[C@H](O)[C@H]4O)[C@H](O[C@H]4[C@H](OC5CC[C@]6(C)[C@H]7CCC89C(=O)O[C@@](C)(CCCC(C)C)C8[C@@H](OC(C)=O)C[C@@]9(C)C7=CC[C@H]6C5(C)C)OC[C@@H](OS(=O)(=O)O)[C@@H]4O)O[C@@H]3C)OC[C@H]2O)O[C@H](CO)[C@H]1O (some centres unmarked) [frondoside A],viability of MDA-MB-231 cells,[8],decreases the viability
same,antimetastatic effect,[9],potent antimetastatic effect
same,proliferation of AsPC-1 cells,[10],inhibits proliferation
